Data: patent US20220175766A1, “COMPOSITIONS AND METHODS OF TREATMENT” (GB004, Inc., priority 2019, published 2022)
Values after ≈ are worked out from the molar mass of the structure shown. Like-named read-outs stand apart in the source and are kept apart here.

What was measured:
EPO or VEGF = experiment: Phase 1a multiple dose tablet study (Example 26): EPO and VEGF change from baseline to Day 7; parameters: species or system human; conditions: in vivo
[1] = Compound 1 pH-solubility at 22° C.; type: physicochemical; conditions: for solubility: aqueous buffer, thermodynamic from solid
Excerpt: The solubility of Compound 1 at various pH's was investigated.

[2] = Phase 1a multiple ascending dose study: Compound 1 concentration in colon tissue (colonic mucosal biopsy); type: in vivo, human
Excerpt: Colonic mucosal biopsy samples were acquired.

[3] = Phase 1a multiple ascending dose study (oral solution): plasma pharmacokinetics; type: in vivo, human; conditions: for concentration at 0.5 h: Hour 0.5; for concentration at 0.5 h / concentration at 1 h / concentration at 2 h / concentration at 3 h / concentration at 4 h / concentration at 6 h / concentration at 8 h / concentration at 12 h / concentration at 16 h / concentration at 24 h: read-out: Compound 1 concentration, Conc (SD); for concentration at 1 h: Hour 1; for concentration at 2 h: Hour 2; for concentration at 3 h: Hour 3; for concentration at 4 h: Hour 4; for concentration at 6 h: Hour 6; for concentration at 8 h: Hour 8; for concentration at 12 h: Hour 12; for concentration at 16 h: Hour 16; for concentration at 24 h: Hour 24
Protocol: Compound 1 was administered as the HCl-salt (prepared analogously to Example 2.1).
The secondary objective was to characterize the multiple dose pharmacokinetic (PK) parameters of Compound 1, after ascending doses. Secondary endpoints included determination of PK parameters in plasma and urine, fecal excretion and assessment of colonic biopsy samples.
Blood samples were collected at the following time points relative to dose administration on Day 1 and Day 7: pre-dose; 0.5, 1, 2, 3, 4, 6, 8, 12, 16 and 24 hours post dose. Analysis and concentration determinations were performed using a liquid chromatography-mass spectrometry and liquid chromatography-tandem mass spectrometry (LC/MS/MS) method.

[4] = Cohort 1, 60 mg once daily, Day 7
[5] = Cohort 2, 120 mg once daily, Day 7
[6] = Cohort 3, 240 mg once daily, Day 7
[7] = Cohort 4, 120 mg once daily, Day 7
[8] = Cohort 5, 60 mg once daily, Day 7
[9] = human, plasma, oral, 60 mg, Cohort 1, 60 mg once daily, Day 7
[10] = human, plasma, oral, 60 mg, Cohort 1, 60 mg, Day 1
[11] = human, plasma, oral, 60 mg, Cohort 5, 60 mg once daily, Day 7
[12] = human, plasma, oral, 60 mg, Cohort 5, 60 mg, Day 1

## CC(C)(C)OC(=O)N1CCN(Cc2ccn(Cc3ccc(Cl)cc3)c(=O)c2O)CC1 [Compound 1, tert-butyl 4-((1-(4-chlorobenzyl)-3-hydroxy-2-oxo-1,2-dihydropyridin-4-yl)methyl)piperazine-1-carboxylate]
EPO or VEGF
  Effects on EPO or VEGF from baseline to Day 7 compared to placebo: no consistent or dose-related effects
[1]; TRIS buffer, pH 8 (TRIS 25 mM, l = 0.1), pH 8.0, 22° C.
  solubility: 0.69 µg/mL (≈ 1.59 µM)
[1]; above pH 4
  Solubility (in words): practically insoluble
[1]; 0.1M NaOH, pH 12.6, 22° C.
  solubility: 890 µg/mL (≈ 2050 µM)
[1]; at pH 1
  Solubility (in words): soluble
[1]; at pH 6.8
  Solubility (in words): totally insoluble
[1]; citrate buffer, pH 3 (Citrate 25 mM, l = 0.1), pH 2.9, 22° C.
  solubility: 570 µg/mL (≈ 1310 µM)
[1]; citrate buffer, pH 4 (Citrate 25 mM, l = 0.1), pH 3.9, 22° C.
  solubility: 94 µg/mL (≈ 217 µM)
[1]; citrate buffer, pH 5 (Citrate 25 mM, l = 0.1), pH 5.0, 22° C.
  solubility: 9.8 µg/mL (≈ 22.6 µM)
[1]; glycine buffer, pH 10 (Glycine 25 mM, l = 0.1), pH 9.9, 22° C.
  solubility: 9.9 µg/mL (≈ 22.8 µM)
[1]; phosphate buffer, pH 6.5 (Phosphate 25 mM, l = 0.1), pH 6.5, 22° C.
  solubility: 1 µg/mL (≈ 2.3 µM)
[2]; Cohort 2, 120 mg
  Compound 1 Concentration in Colon Tissue, Median (Range): 10.75 (0-1150) ng/g
[2]; Cohort 3, 240 mg
  Compound 1 Concentration in Colon Tissue, Median (Range): 23.50 (0-301) ng/g
[2]; Cohort 4, 120 mg
  Compound 1 Concentration in Colon Tissue, Median (Range): 127.47 (0-3330) ng/g
[2]; Cohort 5, 60 mg
  Compound 1 Concentration in Colon Tissue, Median (Range): 102.30 (0-1360) ng/g
[2]; colonic mucosal biopsy samples
  Compound 1 colon tissue levels (in words): increase in a dose-dependent manner
[3]; [4]
  ARAUC (accumulation ratio of AUC), mean: 2.1
  ARCmax (accumulation ratio of Cmax), mean: 1.0
[3]; Cohort 1, 60 mg, Day 1
  Tmax, median (range): 0.5 (0.5-1.0) h
[3]; [5]
  ARAUC (accumulation ratio of AUC), mean: 1.8
  ARCmax (accumulation ratio of Cmax), mean: 1.2
[3]; [6]
  ARAUC (accumulation ratio of AUC), mean: 1.4
  ARCmax (accumulation ratio of Cmax), mean: 1.0
[3]; [7]
  ARAUC (accumulation ratio of AUC), mean: 2.3
  ARCmax (accumulation ratio of Cmax), mean: 1.3
[3]; Cohort 4, 120 mg, Day 1
  Tmax, median (range): 0.5 (0.5-1.0) h
[3]; [8]
  ARAUC (accumulation ratio of AUC), mean: 3.0
  ARCmax (accumulation ratio of Cmax), mean: 1.3
[3]; [9]
  concentration at 0.5 h: 4.33 ng/mL
  concentration at 1 h: 3.02 ng/mL
  concentration at 2 h: 1.85 ng/mL
  concentration at 3 h: 0 ng/mL
  concentration at 4 h: 0 ng/mL
  concentration at 6 h: 0 ng/mL
  concentration at 8 h: 0 ng/mL
  concentration at 12 h: 0 ng/mL
  concentration at 16 h: 0 ng/mL
  concentration at 24 h: 0 ng/mL
[3]; human, plasma, oral, 60 mg, Cohort 1, 60 mg once daily, Day 7, read-out: AUC(0-t), mean
  AUC(0-t): 17 ng·h/mL
[3]; human, plasma, oral, 60 mg, Cohort 1, 60 mg once daily, Day 7, read-out: Cmax, mean
  Cmax: 4.33 ng/mL
[3]; [10]
  concentration at 0.5 h: 3.88 ng/mL
  concentration at 1 h: 3.16 ng/mL
  concentration at 4 h: 0 ng/mL
  concentration at 6 h: 0 ng/mL
  concentration at 8 h: 0 ng/mL
  concentration at 12 h: 0 ng/mL
  concentration at 16 h: 0 ng/mL
  concentration at 24 h: 0 ng/mL
[3]; human, plasma, oral, 60 mg, Cohort 1, 60 mg, Day 1, read-out: AUC(0-τ) column, AUClast is presented (footnote b), mean (SD)
  AUC(0-t): 5.32 ng·h/mL
[3]; human, plasma, oral, 60 mg, Cohort 1, 60 mg, Day 1, read-out: Cmax, mean (SD)
  Cmax: 4.11 ng/mL
[3]; [11]
  concentration at 0.5 h: 6.24 ng/mL
  concentration at 1 h: 4.6 ng/mL
  concentration at 2 h: 2.57 ng/mL
  concentration at 3 h: 1.99 ng/mL
  concentration at 4 h: 1.62 ng/mL
  concentration at 6 h: 2.15 ng/mL
  concentration at 8 h: 2 ng/mL
  concentration at 12 h: 1.7 ng/mL
  concentration at 16 h: 1.59 ng/mL
  concentration at 24 h: 1.18 ng/mL
[3]; human, plasma, oral, 60 mg, Cohort 5, 60 mg once daily, Day 7, read-out: AUC(0-t), mean
  AUC(0-t): 53.2 ng·h/mL
[3]; human, plasma, oral, 60 mg, Cohort 5, 60 mg once daily, Day 7, read-out: Cmax, mean
  Cmax: 6.31 ng/mL
[3]; [12]
  concentration at 0.5 h: 4.83 ng/mL
  concentration at 1 h: 3.94 ng/mL
  concentration at 3 h: 0 ng/mL
  concentration at 4 h: 0 ng/mL
  concentration at 6 h: 0 ng/mL
  concentration at 8 h: 0 ng/mL
  concentration at 12 h: 0 ng/mL
  concentration at 16 h: 0 ng/mL
  concentration at 24 h: 0 ng/mL
[3]; human, plasma, oral, 60 mg, Cohort 5, 60 mg, Day 1, read-out: AUC(0-τ), mean (SD)
  AUC: 28.7 ng·h/mL
